Legend:
[1] = PermeaPad 96-well plate permeability assay (absence of mucus); type: in vitro ADME; conditions: for Papp at 5 h: not told, pH 7.4, PermeaPad without mucus
Protocol: (§1) The permeability assay was conducted in the absence (i.e., PermeaPad) and presence (i.e., PermeaPad + mucus) of the pathological mucus model. Stock solutions of drugs were prepared at 10 mg/mL in DMSO; working solutions were prepared by diluting the stocks within soluble concentration ranges (either 100 or 500 µM) in a 10 mM phosphate buffer (PB) (pH 7.4, 5% DMSO). The donor compartments of the PermeaPad plate were then filled with 200 µL of the drug working solution, while the acceptor compartments were filled with 400 µL of PB buffer (5% DMSO). […] (1) Papp=dQ/dt/C0×A where dQ represents the quantity of drug expressed as moles permeated into the acceptor compartment at time t (18.000 s), C0 is the initial concentration in the donor compartment, and A is the area of the PermeaPad membrane (0.15 cm^2).
(§2) The concentration of the drug in each acceptor well was determined using a Varian HPLC equipped with a 410 autosampler and a C18 column (150 × 2 mm, […], 100) and detected on a Varian 320 MS TQ mass spectrometer equipped with an electrospray ionization (ESI) source operating in positive or negative mode. The detector was used in multiple-reaction monitoring (MRM). Mobile phases composed of acetonitrile and water, 0.1% formic acid, or ammonium acetate (5 mM, pH 6.6), were pumped at 200 µL/min, following a gradient program. The injection volume was 5 µL. Quantifications were achieved according to a seven-point calibration curve specific to each compound.
(§3) A minimum of three replicates were performed for each compound, with and without mucus. All the quantitative data are reported as the mean ± standard deviation (SD). Statistical significance was calculated by applying the Student’s t test; a p < 0.05 was considered to be statistically significant and is indicated with asterisks (i.e., * p < 0.05, ** p < 0.01, *** p < 0.001, **** p < 0.0001).

[2] = PermeaPad + mucus permeability assay (cystic fibrosis mucus model on PermeaPad 96-well plate); type: in vitro ADME; conditions: for Effect of mucus on Papp: Papp vs. Papp mucus, significance at p < 0.05; for Effect of mucus on Papp / statistical significance of the difference in permeation with vs without mucus: Student's t-test; for Papp at 5 h: not told, PermeaPad + mucus model, donor 100 or 500 µM in 10 mM PB pH 7.4, 5% DMSO, single timepoint 5 h, mean (±SD), n>=3, read-out: Papp mucus ± SD • 10^6; for permeation in the presence of mucus versus without mucus: PermeaPad + mucus vs PermeaPad; for statistical significance of the difference in permeation with vs without mucus: p < 0.05
Protocol: The pathological mucus model produced by Bac3Gel Lda. was prepared as previously described. […] The mucin suspension was prepared in mQ water.
Next, 20 µL of the mucus mixture was pipetted into the donor compartment of the PermeaPad plate (i.e., PermeaPad + mucus, from here on). The donor plate was carefully shaken to homogeneously distribute the mucus over the entire surface of the well. This step is also useful to get rid of the air bubbles that can form during the mixing of the mucus reagents. Before running the permeation measurements, the mucus was allowed to crosslink overnight by storing the PermeaPad plate at 4 °C.
as §1, §2, §3

mucins = tested on: mucins; parameters: method as in PMID 26169405, PMID 7535039, PMID 33405639; conditions: polycationic drugs; cited from earlier work
[3] = donor 100 or 500 µM in 10 mM PB pH 7.4, 5% DMSO, single timepoint 5 h, mean (±SD), n>=3, read-out: Papp ± SD • 10^6
[4] = 5 h, extremes of measured range, trametinib value set because below limit of detection, read-out: apparent permeability (Papp)

CCOC(=O)C1=C(COCCN)NC(C)=C(C(=O)OC)C1c1ccccc1Cl (centres unmarked) [Amlodipine]
Papp at 5 h [1, 3]: 0.66 ×10⁻⁶ cm/s | Effect of mucus on Papp [2]: None | Papp at 5 h [2]: 0.35 ×10⁻⁶ cm/s

CC(C(=O)O)c1cccc(C(=O)c2ccccc2)c1 (centres unmarked) [Ketoprofen]
permeation in the presence of mucus versus without mucus [2]: higher permeation in the presence of mucus

CC(=O)Nc1ccc(O)cc1 [Acetaminophen]
Papp at 5 h [1, 3]: 4.55 ×10⁻⁶ cm/s | Effect of mucus on Papp [2]: Reduced | Papp at 5 h [2]: 1.77 ×10⁻⁶ cm/s

NC[C@H]1O[C@H](O[C@H]2[C@H](O)[C@@H](O[C@H]3O[C@H](CO)[C@@H](O)[C@H](N)[C@H]3O)[C@H](N)C[C@@H]2N)[C@H](N)C[C@@H]1O [tobramycin]
interaction with mucins (mucins): strongly interact with mucins

CN(C)[C@@H]1C(O)=C(C(N)=O)C(=O)[C@@]2(O)C(O)=C3C(=O)c4c(O)cccc4[C@@](C)(O)[C@H]3C[C@@H]12 [Tetracycline]
Effect of mucus on Papp [2]: Reduced | Papp at 5 h [2]: 0.2 ×10⁻⁶ cm/s

CCS(=O)(=O)N1CC(CC#N)(n2cc(-c3ncnc4[nH]ccc34)cn2)C1 [Baricitinib]
Papp at 5 h [1, 3]: 3.06 ×10⁻⁶ cm/s | Effect of mucus on Papp [2]: Reduced | Papp at 5 h [2]: 0.87 ×10⁻⁶ cm/s

C[C@H]1[C@H](NC(=O)/C(=N\OC(C)(C)C(=O)O)c2csc(N)n2)C(=O)N1S(=O)(=O)O [Aztreonam]
Papp at 5 h [1, 3]: 0.18 ×10⁻⁶ cm/s | Effect of mucus on Papp [2]: None | Papp at 5 h [2]: 0.17 ×10⁻⁶ cm/s

CCn1cc(C(=O)O)c(=O)c2cc(F)c(N3CCNCC3)cc21 [Norfloxacin]
Papp at 5 h [1, 3]: 1.7 ×10⁻⁶ cm/s | Effect of mucus on Papp [2]: None | Papp at 5 h [2]: 1.61 ×10⁻⁶ cm/s

Nc1nc2c(ncn2COCCO)c(=O)[nH]1 [Acyclovir]
Papp at 5 h [1, 3]: 2.17 ×10⁻⁶ cm/s | Effect of mucus on Papp [2]: Reduced | Papp at 5 h [2]: 0.83 ×10⁻⁶ cm/s

CC(CCc1ccccc1)NCC(O)c1ccc(O)c(C(N)=O)c1 (centres unmarked) [Labetalol]
Papp at 5 h [1, 3]: 1.81 ×10⁻⁶ cm/s | Effect of mucus on Papp [2]: Reduced | Papp at 5 h [2]: 1.11 ×10⁻⁶ cm/s

COC(=O)N[C@H](C(=O)N[C@@H](Cc1ccccc1)[C@@H](O)CN(Cc1ccc(-c2ccccn2)cc1)NC(=O)[C@@H](NC(=O)OC)C(C)(C)C)C(C)(C)C [Atazanavir]
Papp at 5 h [1, 3]: 0.19 ×10⁻⁶ cm/s | Effect of mucus on Papp [2]: None | Papp at 5 h [2]: 0.13 ×10⁻⁶ cm/s

colistin
interaction with mucins (mucins): strongly interact with mucins

NC(=O)c1nc(F)c[nH]c1=O [Favipiravir]
Papp at 5 h [1, 3]: 5.15 ×10⁻⁶ cm/s | Effect of mucus on Papp [2]: Increased | permeation in the presence of mucus versus without mucus [2]: higher permeation in the presence of mucus | Papp at 5 h [2]: 6.18 ×10⁻⁶ cm/s

CC(C)(C)NC(=O)[C@@H]1C[C@@H]2CCCC[C@@H]2CN1C[C@@H](O)[C@H](Cc1ccccc1)NC(=O)[C@H](CC(N)=O)NC(=O)c1ccc2ccccc2n1 [Saquinavir]
Papp at 5 h [1, 3]: 0.08 ×10⁻⁶ cm/s | Effect of mucus on Papp [2]: Reduced | Papp at 5 h [2]: 0.01 ×10⁻⁶ cm/s

CO[C@H]1/C=C/O[C@@]2(C)Oc3c(C)c(O)c4c(O)c(c(/C=N/N5CCN(C)CC5)c(O)c4c3C2=O)NC(=O)/C(C)=C\C=C\[C@H](C)[C@H](O)[C@@H](C)[C@@H](O)[C@@H](C)[C@H](OC(C)=O)[C@@H]1C [Rifampicin]
Papp at 5 h [1, 3]: 0.7 ×10⁻⁶ cm/s | Effect of mucus on Papp [2]: None | Papp at 5 h [2]: 0.71 ×10⁻⁶ cm/s

CN(C)C(=O)COC(=O)Cc1ccc(OC(=O)c2ccc(NC(=N)N)cc2)cc1 [Camostat]
Papp at 5 h [1, 3]: 2.16 ×10⁻⁶ cm/s | Effect of mucus on Papp [2]: Reduced | Papp at 5 h [2]: 0.81 ×10⁻⁶ cm/s

CC(C)Cc1ccc(C(C)C(=O)O)cc1 (centres unmarked) [Ibuprofen]
Papp at 5 h [1, 3]: 0.94 ×10⁻⁶ cm/s | Effect of mucus on Papp [2]: None | permeation in the presence of mucus versus without mucus [2]: higher permeation in the presence of mucus | statistical significance of the difference in permeation with vs without mucus [2]: not statistically significant | Papp at 5 h [2]: 1.2 ×10⁻⁶ cm/s

CO[C@H]1/C=C/O[C@@]2(C)Oc3c(C)c(O)c4c(O)c(c5c(nc6cc(C)ccn65)c4c3C2=O)NC(=O)/C(C)=C\C=C\[C@H](C)[C@H](O)[C@@H](C)[C@@H](O)[C@@H](C)[C@H](OC(C)=O)[C@@H]1C [Rifaximin]
Papp at 5 h [1, 3]: 0.09 ×10⁻⁶ cm/s | Effect of mucus on Papp [2]: None | Papp at 5 h [2]: 0.08 ×10⁻⁶ cm/s

O=C(O)c1ccccc1O [Salicylic acid]
Papp at 5 h [1, 3]: 2.71 ×10⁻⁶ cm/s | Effect of mucus on Papp [2]: None | permeation in the presence of mucus versus without mucus [2]: higher permeation in the presence of mucus | statistical significance of the difference in permeation with vs without mucus [2]: not statistically significant | Papp at 5 h [2]: 4.89 ×10⁻⁶ cm/s

CC(C)NCC(O)COc1cccc2ccccc12 (centres unmarked) [Propranolol]
Papp at 5 h [1, 3]: 4.26 ×10⁻⁶ cm/s | Effect of mucus on Papp [2]: Reduced | Papp at 5 h [2]: 1.08 ×10⁻⁶ cm/s

CC(=O)Nc1cccc(-n2c(=O)n(C3CC3)c(=O)c3c(Nc4ccc(I)cc4F)n(C)c(=O)c(C)c32)c1 [Trametinib]
concentration in the acceptor compartment ([1]; PermeaPad, 5 h, HPLC-ESI-MS): below the limit of detection | Papp at 5 h [1, 4]: 0.001 ×10⁻⁶ cm/s | Effect of mucus on Papp [2]: None

CC(C)(C)NCC(O)c1ccc(O)c(CO)c1 (centres unmarked) [Salbutamol]
Papp at 5 h [1, 3]: 2.34 ×10⁻⁶ cm/s | Effect of mucus on Papp [2]: Reduced | Papp at 5 h [2]: 0.64 ×10⁻⁶ cm/s

C=CC(=O)N1CCN(c2nc(=O)n(-c3c(C)ccnc3C(C)C)c3nc(-c4c(O)cccc4F)c(F)cc23)[C@@H](C)C1 [Sotorasib]
Papp at 5 h [1, 3]: 0.48 ×10⁻⁶ cm/s | Effect of mucus on Papp [2]: None | Papp at 5 h [2]: 0.21 ×10⁻⁶ cm/s

polymyxin
interaction with mucins (mucins): strongly interact with mucins

O=C(Nc1c(Cl)cncc1Cl)c1ccc(OC(F)F)c(OCC2CC2)c1 [Roflumilast]
Papp at 5 h [1, 4]: 0.0079 ×10⁻⁶ cm/s | Papp at 5 h [1, 3]: 0.01 ×10⁻⁶ cm/s | Effect of mucus on Papp [2]: None

CCN(CC)CCOC(=O)c1ccc(N)cc1 [Procaine]
Papp at 5 h [1, 3]: 2.67 ×10⁻⁶ cm/s | Effect of mucus on Papp [2]: Reduced | Papp at 5 h [2]: 0.6 ×10⁻⁶ cm/s
